# From patent US8546380B2, “Aminodihydrothiazine derivatives” (Shionogi & Co., Ltd., priority 2005, dated 2013)
# Biological target: recombinant human BACE-1 protein (Homo sapiens (Human), UniProt P56817)
# Assay: Measurement of Inhibition of β-Secretase Activity
# Type: biochemical
# Conditions: fluorescence-quenched peptide substrate 18 nM, BACE-1 7.4 nM, 3 h at 30° C., pH5.0; read-out: IC50 value
# Description: Zero point five μL of the test compounds (dissolved in N,N′-dimethylsulfoxide) were incubated with 48.5 μL of the fluorescence-quenched peptide substrate solution (Biotin-XSEVNLDAEFRHDSGC-Eu:X=ε-amino-n-capronic acid, Eu=Europium cryptate) and 1 μL of recombinant human BACE-1 protein (R&D systems) for 3 h at 30° C. in the 96 well half-area plate (black color plate, Costar). The substrate peptide was synthesized by reacting with Biotin-XSEVNLDAEFRHDSGC (Peptide Institute) and Cryptate TBPCOOH mono SMP (CIS bio international). […] The enzymatic reaction was performed in sodium acetate buffer (50 mM sodium acetate (pH5.0), 0.008% Triton X-100). After the reaction, a 50 μL of 8.0 μg/mL Streptavidin-XL665 (CIS bio international) dissolved in phosphate buffer (150 mM K2HPO4—KH2PO4 (pH 7.0), 0.008% Triton X-100, 0.8 M KF) was add to each well and incubated for 1 h at 30° C.
# Chain of recombinant human BACE-1 protein (P56817 46-501): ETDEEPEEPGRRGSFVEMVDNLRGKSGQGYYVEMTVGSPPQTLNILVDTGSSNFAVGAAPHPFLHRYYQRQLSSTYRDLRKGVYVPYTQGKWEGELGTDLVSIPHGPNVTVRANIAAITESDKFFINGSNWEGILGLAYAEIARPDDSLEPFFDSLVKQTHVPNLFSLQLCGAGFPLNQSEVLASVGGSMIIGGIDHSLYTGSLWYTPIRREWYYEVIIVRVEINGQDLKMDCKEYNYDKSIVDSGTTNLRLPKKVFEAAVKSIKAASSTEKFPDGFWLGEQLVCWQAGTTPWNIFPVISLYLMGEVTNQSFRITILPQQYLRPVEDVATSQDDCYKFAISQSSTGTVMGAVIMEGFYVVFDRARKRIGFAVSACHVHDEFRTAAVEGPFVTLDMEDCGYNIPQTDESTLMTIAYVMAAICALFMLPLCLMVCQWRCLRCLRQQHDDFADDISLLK
row,SMILES,IC50 [µM]
1,CC1(c2cccc(NC(=O)c3cc(F)c(Cl)cc3F)c2)CCSC(N)=N1 (stereo not drawn) [Compound 35],< 100
2,CC1(c2cccc(NC(=O)CCc3ccccc3)c2)CCSC(N)=N1 (stereo not drawn) [Compound 808],< 100
3,CC1(c2cccc(NC(=O)C(=O)c3ccccc3)c2)CCSC(N)=N1 (stereo not drawn) [Compound 1272],< 100
4,CCN(C(=O)c1ccc(Cl)cn1)c1cccc(C2(C)CCSC(N)=N2)c1 (stereo not drawn) [Compound 941],< 100
5,CC(=O)c1ccc(C(=O)Nc2cccc(C3(C)CCSC(N)=N3)c2)cc1 (stereo not drawn) [Compound 314],< 100
6,CCOc1ccc(C(=O)Nc2cccc(C3(C)CCSC(N)=N3)c2)nc1 (stereo not drawn) [Compound 516],< 100
7,CC1(c2cccc(NC(=O)CCNC(=O)c3ccc(Cl)cn3)c2)CCSC(N)=N1 (stereo not drawn) [Compound 134],< 100
8,COC(=O)c1ccc(C(=O)Nc2cccc(C3(C)CCSC(N)=N3)c2)cc1 (stereo not drawn) [Compound 328],< 100
9,CC1(c2cccc(/C=N/Oc3ccccc3)c2)CCSC(N)=N1 (stereo not drawn) [Compound 383],< 100
10,CC1(c2cccc(NC(=O)c3cc(CCO)on3)c2)CCSC(N)=N1 (stereo not drawn) [Compound 1165],< 100
11,CC(=O)Nc1ccc(C(=O)Nc2cccc(C3(C)CCSC(N)=N3)c2)nc1 (stereo not drawn) [Compound 792],< 100
12,Cn1c(CNc2cccc(C3(C)CCSC(N)=N3)c2)cc2ccccc21 (stereo not drawn) [Compound 78],< 100
13,CC1(c2cccc(NC(=O)c3ccc(OCc4ccccc4)cc3)c2)CCSC(N)=N1 (stereo not drawn) [Compound 144],< 100
14,C/C(=N\OCc1ccccc1)c1cccc(C2(C)CCSC(N)=N2)c1 (stereo not drawn) [Compound 620],< 100
15,Cc1cccc(C(=O)Nc2cccc(C3(C)CCSC(N)=N3)c2)n1 (stereo not drawn) [Compound 348],< 100
16,CC1(c2cccc(NCc3ccc4ccccc4c3)c2)CCSC(N)=N1 (stereo not drawn) [Compound 443],< 100
17,CC1(c2cccc(OCC(=O)Nc3ccc(C(=O)c4ccccc4)cc3)c2)CCSC(N)=N1 (stereo not drawn) [Compound 591],< 100
18,CC1(c2cccc(NC(=O)c3ccc(F)nc3)c2)CCSC(N)=N1 (stereo not drawn) [Compound 850],< 100
19,CC1(c2cccc(NC(=O)Cc3cc(Cl)ccn3)c2)CCSC(N)=N1 (stereo not drawn) [Compound 113],< 100
20,CC1(c2cccc(NC(=O)c3cccc(Cl)n3)c2)CCSC(N)=N1 (stereo not drawn) [Compound 298],< 100
21,CC1(c2cccc(NC(=O)c3ccc(NC(=O)c4ccccn4)cn3)c2)CCSC(N)=N1 (stereo not drawn) [Compound 319],< 100
22,CC1(c2cccc(NCCc3ccc(F)cc3)c2)CCSC(N)=N1 (stereo not drawn) [Compound 966],< 100
23,Cn1c(C(=O)Nc2ccc(F)c(C3(C)CCSC(N)=N3)c2)cc2ccccc21 (stereo not drawn) [Compound 586],< 100
24,CC1(c2ccc(C(=O)NCCc3ccc(Cl)cc3)s2)CCSC(N)=N1 (stereo not drawn) [Compound 442],< 100

row,SMILES,IC50 [µM]
1,COc1ccc(C(=O)Nc2cccc(C3(C)CCSC(N)=N3)c2)c(OC)n1 (stereo not drawn) [Compound 467],< 100
2,CC1(c2cccc(NC(=O)CCNC(=O)c3ccc(F)cc3)c2)CCSC(N)=N1 (stereo not drawn) [Compound 216],< 100
3,CC1(c2cc(NC(=O)c3ncc(Cl)cc3N)ccc2F)CCSC(N)=N1 (stereo not drawn) [Compound 820],< 100
4,Cc1nocc1C(=O)Nc1cccc(C2(C)CCSC(N)=N2)c1 (stereo not drawn) [Compound 307],< 100
5,CC1(c2cccc(NC(=O)C(=O)Nc3ccccc3)c2)CCSC(N)=N1 (stereo not drawn) [Compound 1147],< 100
6,CCOCc1ccc(C(=O)Nc2cccc(C3(C)CCSC(N)=N3)c2)nc1 (stereo not drawn) [Compound 1185],< 100
7,CNc1nc(OC)cnc1C(=O)Nc1cccc(C2(C)CCSC(N)=N2)c1 (stereo not drawn) [Compound 353],< 100
8,CC1(c2ccc(NC(=O)c3ccc(Br)cc3)cc2)CCSC(N)=N1 (stereo not drawn) [Compound 278],< 100
9,CC1(c2cccc(CNc3ccccn3)c2)CCSC(N)=N1 (stereo not drawn) [Compound 281],< 100
10,CC1(c2cccc(OCC(=O)Nc3ccccc3)c2)CCSC(N)=N1 (stereo not drawn) [Compound 200],< 100
11,CC1(c2cccc(NC(=O)c3cccc(I)c3)c2)CCSC(N)=N1 (stereo not drawn) [Compound 691],< 100
12,CC1(c2cc(Br)cc(NC(=O)c3ccc(Cl)cc3)c2)CCSC(N)=N1 (stereo not drawn) [Compound 463],< 100
13,Cc1ccc([S+]([O-])Nc2ccc(F)c(C3(C)CCSC(N)=N3)c2)cc1 (stereo not drawn) [Compound 232],< 100
14,CC1(c2cccc(NC(=O)CCNC(=O)c3ccc(F)cn3)c2)CCSC(N)=N1 (stereo not drawn) [Compound 816],< 100
15,CSc1ncccc1C(=O)Nc1cccc(C2(C)CCSC(N)=N2)c1 (stereo not drawn) [Compound 847],< 100
16,CC1(c2cccc(NC(=O)c3ccc4nonc4c3)c2)CCSC(N)=N1 (stereo not drawn) [Compound 652],< 100
17,Cc1ccc(S(=O)(=O)Nc2cc(Br)cc(C3(C)CCSC(N)=N3)c2)cc1 (stereo not drawn) [Compound 1172],< 100
18,CC1(c2cccc(NC(=O)c3cnc(NCCO)cn3)c2)CCSC(N)=N1 (stereo not drawn) [Compound 1263],< 100
19,CC1(c2cccc(NC(=O)CCNC(=O)c3ccc(Br)cc3)c2)CCSC(N)=N1 (stereo not drawn) [Compound 1255],< 100
20,CCc1cc(NC(=O)c2ccc(C)cc2)cc(C2(C)CCSC(N)=N2)c1 (stereo not drawn) [Compound 928],< 100
21,Cc1ccc(C(=O)Nc2cc(Br)cc(C3(C)CCSC(N)=N3)c2)cc1 (stereo not drawn) [Compound 971],< 100
22,CCCCNC(=O)c1cc(C2(C)CCSC(N)=N2)ccc1F (stereo not drawn) [Compound 1074],< 100
23,CC1(c2cccc(OCC(=O)Nc3ccc4c(c3)CCC4)c2)CCSC(N)=N1 (stereo not drawn) [Compound 1164],< 100
24,COCCNc1cnc(C(=O)Nc2cccc(C3(C)CCSC(N)=N3)c2)cn1 (stereo not drawn) [Compound 1269],< 100

row,SMILES,IC50 [µM]
1,COc1ccc2nc(NC(=O)c3cccc(C4(C)CCSC(N)=N4)c3)sc2c1 (stereo not drawn) [Compound 117],< 100
2,CC1(c2cccc(NC(=O)c3cc(CO)on3)c2)CCSC(N)=N1 (stereo not drawn) [Compound 894],< 100
3,CCOc1cc(Cl)cnc1C(=O)Nc1cccc(C2(C)CCSC(N)=N2)c1 (stereo not drawn) [Compound 532],< 100
4,COc1ccc(NC(=O)/C=C/c2cccc(C3(C)CCSC(N)=N3)c2)cc1 (stereo not drawn) [Compound 790],< 100
5,CCc1ccc(C(=O)Nc2cccc(C3(C)CCSC(N)=N3)c2)cc1 (stereo not drawn) [Compound 919],< 100
6,CC1(c2cccc(NC(=O)/C=C/c3ccccc3)c2)CCSC(N)=N1 (stereo not drawn) [Compound 1258],< 100
7,CC1(c2cc(F)cc(NC(=O)c3ncccc3C(N)=O)c2)CCSC(N)=N1 (stereo not drawn) [Compound 947],< 100
8,CC1(c2cccc(NC(=S)Nc3ccc(Br)cc3)c2)CCSC(N)=N1 (stereo not drawn) [Compound 43],< 100
9,Cc1oc(-c2ccc(Cl)cc2)cc1C(=O)Nc1cc(C2(C)CCSC(N)=N2)ccc1F (stereo not drawn) [Compound 397],< 100
10,Cc1ccc(C(=O)Nc2cccc(C3(C)CCSC(N)=N3)c2)c(C)c1 (stereo not drawn) [Compound 12],< 100
11,CC(C)Oc1ccc(C(=O)Nc2cccc(C3(C)CCSC(N)=N3)c2)nc1 (stereo not drawn) [Compound 299],< 100
12,CC1(c2cccc(NC(=O)C(=O)Nc3ccc(Cl)cn3)c2)CCSC(N)=N1 (stereo not drawn) [Compound 866],< 100
13,CC1(c2cccc(NC(=O)c3ccc(O)cc3)c2)CCSC(N)=N1 (stereo not drawn) [Compound 1174],< 100
14,CC1(c2cc(NC(=O)c3cc[nH]n3)ccc2F)CCSC(N)=N1 (stereo not drawn) [Compound 893],< 100
15,CCOc1ccc(C(=O)Nc2cccc(C3(C)CCSC(N)=N3)c2)cc1 (stereo not drawn) [Compound 480],< 100
16,COc1ccc(C(=O)Nc2cccc(C3(C)CCSC(N)=N3)c2)cc1[N+](=O)[O-] (stereo not drawn) [Compound 154],< 100
17,CC1(c2cccc(NC(=O)c3cc(CCCO)on3)c2)CCSC(N)=N1 (stereo not drawn) [Compound 788],< 100
18,CC1(c2cccc(NC(=O)c3ccc(-c4ccccc4)cc3)c2)CCSC(N)=N1 (stereo not drawn) [Compound 761],< 100
19,CC1(c2cccc(C(=O)Nc3nncs3)c2)CCSC(N)=N1 (stereo not drawn) [Compound 671],< 100
20,CC1(c2cccc(NC(=S)Nc3ccc(Cl)cc3)c2)CCSC(N)=N1 (stereo not drawn) [Compound 406],< 100
21,Cc1cccc2cc(C(=O)Nc3cccc(C4(C)CCSC(N)=N4)c3)[nH]c12 (stereo not drawn) [Compound 908],< 100
22,CC1(c2cccc(NC(=O)C(=O)Nc3ccc(Cl)cc3)c2)CCSC(N)=N1 (stereo not drawn) [Compound 361],< 100
23,COc1cnc(C(=O)Nc2cccc(C3(C)CCSC(N)=N3)c2)c(C)c1 (stereo not drawn) [Compound 1211],< 100

# Same assay, conditions: recombinant human BACE-1 protein, 3 h at 30° C., pH5.0; read-out: IC50 value
row,SMILES,IC50 [µM]
1,Cc1ccc(NC(=O)COc2cccc(C3(C)CCSC(N)=N3)c2)cc1O (stereo not drawn) [Compound 639],7.9
2,CC1(c2cccc(OCC(=O)Nc3ccc(Cl)cc3)c2)CCSC(N)=N1 (stereo not drawn) [Compound 246],2.9
3,CC1(c2cc(Cl)cc(NC(=O)c3ccco3)c2)CCSC(N)=N1 (stereo not drawn) [Compound 822],0.243
4,COCc1cc(NC(=O)c2ccco2)cc(C2(C)CCSC(N)=N2)c1 (stereo not drawn) [Compound 176],1.48
5,CCOC(=O)C(F)=Cc1cccc(C2(C)CCSC(N)=N2)c1 (stereo not drawn) [Compound 1205],8.1
6,CC1(c2ccc(F)c(NC(=O)c3ccc4ccccc4n3)c2)CCSC(N)=N1 (stereo not drawn) [Compound 799],6.7
7,CC1(c2cccc(C=Cc3ccc(Cl)cn3)c2)CCSC(N)=N1 (stereo not drawn) [Compound 616],5.9
8,CC1(c2cc(Cl)cc(NC(=O)c3ccc(Br)cc3)c2)CCSC(N)=N1 (stereo not drawn) [Compound 698],0.165
9,CC1(c2cc(Br)cc(NC(=O)c3ccccn3)c2)CCSC(N)=N1 (stereo not drawn) [Compound 1160],0.72
10,COCc1cc(NC(=O)c2ccc(OC(F)(F)F)cc2)cc(C2(C)CCSC(N)=N2)c1 (stereo not drawn) [Compound 664],3.64
